Peptide text beside a SMILES is read from it.

The term melting point denotes the temperature, or range, at which the solid turns liquid. As for `O=S(=O)(Cl)c1c(Cl)cc(Br)cc1Cl`, the melting point came to 45 °C.

For `C=Cc1ccco1`, the melting point was -94 °C.

As to `CN(C)C(=S)Sc1ccc([N+](=O)[O-])cc1[N+](=O)[O-]`, the melting point came to 152 °C.

`CC(C)(Oc1ccc(Cl)cc1)C(=O)OCCOC(=O)c1cccnc1` gave a melting point of 100 °C.

Regarding `O=C(O)c1ccc(-n2cncn2)cc1`, the melting point is 318 to 320 °C.

`CC(C)(C)c1cc(C(C)(C)c2ccc(O)c(C(C)(C)C)c2)ccc1O` returned a melting point of 114 °C.

`C#CC1(O)CCC2(C)C3CCC4(C)C(=O)CCC4C3CCC2(C)C1` (stereo not drawn) displayed a melting point of 238 °C.

For `c1csc(SSc2cccs2)c1`, the melting point is 55 °C.

Regarding `Cc1cc(I)cnc1NCC(=O)OC(C)(C)C`, the melting point was found to be 99 °C.

On to `O=C(C=Nc1ccccc1)c1ccc(C(=O)C=Nc2ccccc2)cc1`, for which the melting point was found to be 155 °C.

On to `Brc1cccnc1Br`, for which the melting point came to 59 °C.

For the molecule `N#Cc1ccc(N2CCNCC2)nc1`, the melting point was 131 °C.

The molecule `CCCCc1ccc(NC(C)=O)cc1` showed a melting point of 107 to 109 °C.

As for `COC1(C)OC(CNc2ccc(S(C)(=O)=O)cc2)C(CNc2ccc(S(C)(=O)=O)cc2)OC1(C)OC` (stereo not drawn), the melting point was in the range of 194 to 195 °C.

`Brc1cc(Br)ncn1` had a melting point of 51 °C.

As for `OC12CCCC1c1ccccc12` (stereo not drawn), the melting point came to 66 °C.

Molecule `CCC1CC(O)CC(C)(C)N1O` (stereo not drawn) showed a melting point of 69 to 73 °C.

The molecule `CC(NC(=O)C(C(F)(F)F)C(F)(F)F)c1ccccc1` (stereo not drawn) gave a melting point of 137 °C.

For `OC1CCc2ccccc2C1` (stereo not drawn), the melting point turned out to be 15.5 °C.

Turning to `O=C(O)c1cc(Br)c(C(=O)O)cc1Br`, the melting point lay within 315 to 318 °C.

As to `NC(=S)Nc1cc(C(F)(F)F)cc(C(F)(F)F)c1`, the melting point fell in the range of 166 to 168 °C.

Consider `Cc1nc(C)c(Br)s1`, for which the melting point fell in the range of 153 to 155 °C.

In the case of `Cc1c(Cl)cccc1C(=O)O`, the melting point was 164 °C.

In the case of `O=[N+]([O-])c1cc(F)cc(F)c1`, the melting point was determined as 17 °C.

As for `NCC(=O)N[C@@H](CCC(=O)O)C(=O)O` (H-Gly-Glu-OH), the melting point is 155 to 158 °C.

In the case of `CC1C(=O)C23C(O)CC4C(C)(C)CCCC45COC(CC1C2O)C53` (stereo not drawn), the melting point was in the range of 218 to 221 °C.

Molecule `C=Cc1ccccc1-c1cn[nH]c1` returned a melting point of 114 °C.

In turn, `Fc1ccc(I)cc1` gave a melting point of -20 °C.

The molecule `CC(CC(C)=NO)=NO` registered a melting point of 149 °C.

`CCCCC(C#N)(Cn1ccnc1)c1ccccc1` (stereo not drawn) came in with a melting point of 161 °C.

On to `FC(F)(F)c1cc(C=Cc2noc(CCl)n2)cc(C(F)(F)F)c1`, for which the melting point is 106 to 108 °C.

On to `COc1ccc2c(c1)C(C(=O)O)C2` (stereo not drawn), for which the melting point was found to be 93 °C.

`CC1(C)C(C=C(Cl)C(F)(F)F)C1C(=O)OC(C#N)c1cccc(Oc2ccccc2)c1` (stereo not drawn) displayed a melting point of 55.6 °C.

`Cc1ccc2cnccc2c1` showed a melting point of 85.5 °C.

The molecule `CC(=O)Nc1ccc(OC(=O)c2ccccc2OC(C)=O)cc1` returned a melting point of 175 °C.

Take `N#Cc1ccc2c(c1)[N+]([O-])=C(c1ccc(C3=[N+]([O-])c4cc(C#N)ccc4C3=O)cc1)C2=O`: the melting point was 360 °C.

As for `Nc1ccc(CC(=O)O)cc1`, the melting point was 200 °C.

`O=S(=O)(O)CCNC1CCCCC1` yielded a melting point of 320 °C.

As for `O=C(CBr)c1ccc(N2CCOCC2)cc1`, the melting point lay within 112 to 115 °C.

As to `CSc1nc(N)ns1`, the melting point is 156 to 158 °C.

The molecule `CC(C)c1cccc(C(C)C)c1N` came in with a melting point of -45 °C.

In the case of `Cc1ccnc(Cl)c1[N+](=O)[O-]`, the melting point came out at 53 °C.

Molecule `CS(=O)(=O)c1ccc(C(=O)C2C(=O)CCCC2=O)c(Cl)c1` displayed a melting point of 139 °C.

`O=C(Oc1ccc2ccccc2c1-c1c(OC(=O)c2ccccc2)ccc2ccccc12)c1ccccc1` came in with a melting point of 163 to 166 °C.

In turn, `CCOC(=O)C(=O)Nc1cc(C(F)(F)F)cc(C(F)(F)F)c1` gave a melting point of 90 to 92 °C.

Molecule `N#CC(=NO)c1ccccc1` had a melting point of 129 °C.

As for `COc1ccc(COC(C)=O)cc1`, the melting point worked out at 84 °C.

For `O=C(O)C(F)(F)C(F)(F)C(F)(F)C(F)(F)C(F)(F)C(F)(F)C(F)(F)C(F)(F)C(F)(F)C(F)(F)C(F)(F)C(F)(F)C(F)(F)F`, the melting point was 130 °C.

`O=S(=O)(Cl)c1ccccc1Cl` gave a melting point of 27 °C.

Consider `Cc1ccc(-c2ccc(/C=C3\C=C(CC(C)C)OC3=O)o2)cc1`, for which the melting point was 78 °C.

As to `CCCCCCN(CCCCCC)C(=O)COC(=O)c1ccccc1`, the melting point amounted to 162 °C.

Consider `CC(CC/C(=N/O)C(C)C)CC(=O)O` (stereo not drawn), for which the melting point was in the range of 186 to 187 °C.

`O=c1n(-c2ccccc2)c(=O)n(-c2ccccc2)c(=O)n1-c1ccccc1` yielded a melting point of 285 °C.

Consider `CCCCCCCCCCCCOC(=O)c1ccccc1C(=O)OCCCCCCCCCCCC`, for which the melting point was in the range of 21 to 23 °C.

Take `OCc1ccc(N2CCCCC2)nc1`: the melting point lay in the range of 70 to 71 °C.

With `CC(C)[C@@H]1C(=O)N(c2ccccc2)[C@@H]1c1ccccc1`, the melting point worked out at 169 °C.

`OC1Cc2ccccc21` (stereo not drawn): the melting point lay within 58 to 59 °C.

For `Cc1n[nH]c2c(=O)n(Cc3ccc(Cl)cc3)c(C)nc12`, the melting point fell in the range of 218 to 220 °C.

Molecule `Cc1nc(N)nc(NN)n1` gave a melting point of 250 °C.

The molecule `CN1CCN(c2ccccc2C(=O)O)CC1` gave a melting point of 67 to 72 °C.

The molecule `O=C=NC1CCC(N=C=O)CC1` (stereo not drawn) showed a melting point of 59 to 64 °C.

In the case of `CC1CCC(C(C)C)C(=O)C1` (single isomer, unassigned; (-)), the melting point is -6 °C.

As to `O=C(O)c1cnn2ccccc12`, the melting point lay in the range of 199 to 201 °C.

As for `CSC(=O)c1c(C(F)F)nc(C(F)(F)F)c(C(=O)SC)c1CC(C)C`, the melting point was 65 °C.

`CCOC(=O)c1[nH]c(C)c(CO)c1C` displayed a melting point of 220 to 222 °C.

Regarding `OC(c1ccccc1)c1cccc(C(F)(F)F)c1` (stereo not drawn), the melting point turned out to be 63 °C.

Turning to `CC12CC(=CO)C(=O)CC1CCC1C2CCC2(C)C1CCC2(C)O` (stereo not drawn), the melting point turned out to be 188 °C.

With `CC1(c2ccccc2)CC(C(=O)c2cc3ccccc3o2)C1` (stereo not drawn), the melting point fell in the range of 156 to 157 °C.

The molecule `COc1ccc(Br)cc1S(=O)(=O)Cl` registered a melting point of 114 °C.

Take `Cc1ccc2c(c1)CCC(C)C2` (stereo not drawn): the melting point is 20 °C.

Consider `O=S(=O)(Cl)c1sccc1Br`, for which the melting point fell in the range of 39 to 41.5 °C.

As for `O=[N+]([O-])c1ccc2ccccc2c1O`, the melting point lay in the range of 123 to 125 °C.

With `Cc1cc([N+](=O)[O-])cnc1N`, the melting point was found to be 260 °C.

Turning to `Cc1ccc2c(ccc3cc4ccccc4cc32)c1`, the melting point stood at 156 °C.

`Cc1cc(Br)c(Br)cc1C` displayed a melting point of 86 °C.

The molecule `Cc1cccc2c1[nH]c(=O)c1cc(NC(=O)c3ccccc3)c(=O)oc12` yielded a melting point above 300 °C.

For the molecule `CC12CCC(=O)C=C1CCC1C2CCC2(C)CCCC12O` (stereo not drawn), the melting point was 180 °C.

Turning to `OCc1ccc2ncccc2c1`, the melting point was 79 to 80 °C.

The values above are taken from a melting point compilation (Tetko et al.).
